Values of other authors as cited in US20050277626A1, “Methods and compositions for treatment of nicotine dependence and dementias” (priority 2004, published 2005).

Tests used:
[1] = schizophrenic patients
[2] = 400 mg per day

**Q.** With `COc1cc2c(cc1OC)C(=O)C(CC1CCN(Cc3ccccc3)CC1)C2` (stereo not shown) [donepazil] as the compound, how does the “cognitive effect, blinded placebo controlled study” value [1] read?
**A.** no effect

**Q.** And the “cognitive effect, open label studies” value [1]?
**A.** modest cognitive improvements

**Q.** With `O=C(NCCN1CCOCC1)c1ccc(Cl)cc1` [moclobemide] as the compound, how does the “efficacy for smoking cessation” value [2] read?
**A.** demonstrated efficacy

**Q.** Which “apoptosis induced by beta-amyloid and thapsigargin” value (neuroblastoma cell lines) does the source give for `COc1ccc2c3c1O[C@H]1C[C@@H](O)C=C[C@@]31CCN(C)C2` [galantamine] here?
**A.** inhibit apoptosis induced by beta-amyloid and thapsigargin in a concentration dependent manner
